Measurements published in PubChem BioAssay AID2060892 (Molecular Pharmacology Branch, DTP, NCI, 2025).

Tested on: HOP-62 complex spheroids with HUVEC/MSC, viability
Assay: Anticancer human tumor HOP-62 cell line growth inhibition [RAS];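 further: spheroids exposed to agents for seven days before readout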;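 on viability, T/C: 100% = DMSO vehicle control viability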
Details: for IC50: curve of first compound; for viability, T/C: stronger effect = lower value
In short: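 Tumour cells grown as complex spheroids with HUVEC endothelial cells and mesenchymal stem cells, treated with RAS pathway inhibitor combinations. Each agent spans half-log steps from near clinical Cmax, or 10 microM where Cmax is unknown.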

## CC(C)n1nc(-c2ccc3oc(N)nc3c2)c2c(N)ncnc21 + CCn1c(-c2cc(N3CCN(C)CC3)cnc2C(C)OC)c2c3cc(ccc31)-c1csc(n1)CC(NC(=O)C1CC1C)C(=O)N1CCCC(N1)C(=O)OCC(C)(C)C2
Second compound 0.000949 µM
  IC50: 32.8 nM
Second compound 0.003 µM
  IC50: 15.3 nM
Second compound 0.00949 µM
  IC50: 8.38 nM
Second compound 0.03 µM
  IC50: 0.644 nM
Second compound 0.0949 µM
  IC50: < 0.316 nM
Second compound 0.3 µM
  IC50: < 0.316 nM
Second compound 0.000949 µM, first compound 0.000316 µM
  viability, T/C: 122%
Second compound 0.000949 µM, first compound 0.001 µM
  viability, T/C: 111%
Second compound 0.000949 µM, first compound 0.00316 µM
  viability, T/C: 71.4%
Second compound 0.000949 µM, first compound 0.01 µM
  viability, T/C: 71.8%
Second compound 0.000949 µM, first compound 0.0316 µM
  viability, T/C: 59.5%
Second compound 0.000949 µM, first compound 0.1 µM
  viability, T/C: 28.3%
Second compound 0.003 µM, first compound 0.000316 µM
  viability, T/C: 96.2%
Second compound 0.003 µM, first compound 0.001 µM
  viability, T/C: 81.7%
Second compound 0.003 µM, first compound 0.00316 µM
  viability, T/C: 59%
Second compound 0.003 µM, first compound 0.01 µM
  viability, T/C: 65.4%
Second compound 0.003 µM, first compound 0.0316 µM
  viability, T/C: 44.9%
Second compound 0.003 µM, first compound 0.1 µM
  viability, T/C: 23.2%
Second compound 0.00949 µM, first compound 0.000316 µM
  viability, T/C: 64.9%
Second compound 0.00949 µM, first compound 0.001 µM
  viability, T/C: 56.1%
Second compound 0.00949 µM, first compound 0.00316 µM
  viability, T/C: 58.6%
Second compound 0.00949 µM, first compound 0.01 µM
  viability, T/C: 48.9%
Second compound 0.00949 µM, first compound 0.0316 µM
  viability, T/C: 30.7%
Second compound 0.00949 µM, first compound 0.1 µM
  viability, T/C: 24%
Second compound 0.03 µM, first compound 0.000316 µM
  viability, T/C: 52.5%
Second compound 0.03 µM, first compound 0.001 µM
  viability, T/C: 48.5%
Second compound 0.03 µM, first compound 0.00316 µM
  viability, T/C: 40%
Second compound 0.03 µM, first compound 0.01 µM
  viability, T/C: 32.6%
Second compound 0.03 µM, first compound 0.0316 µM
  viability, T/C: 21.7%
Second compound 0.03 µM, first compound 0.1 µM
  viability, T/C: 22.1%
Second compound 0.0949 µM, first compound 0.000316 µM
  viability, T/C: 38.1%
Second compound 0.0949 µM, first compound 0.001 µM
  viability, T/C: 36.4%
Second compound 0.0949 µM, first compound 0.00316 µM
  viability, T/C: 35.8%
Second compound 0.0949 µM, first compound 0.01 µM
  viability, T/C: 37.5%
Second compound 0.0949 µM, first compound 0.0316 µM
  viability, T/C: 20.6%
Second compound 0.0949 µM, first compound 0.1 µM
  viability, T/C: 24.6%
Second compound 0.3 µM, first compound 0.000316 µM
  viability, T/C: 37.8%
Second compound 0.3 µM, first compound 0.001 µM
  viability, T/C: 35%
Second compound 0.3 µM, first compound 0.00316 µM
  viability, T/C: 34.4%
Second compound 0.3 µM, first compound 0.01 µM
  viability, T/C: 27.7%
Second compound 0.3 µM, first compound 0.0316 µM
  viability, T/C: 26.5%
Second compound 0.3 µM, first compound 0.1 µM
  viability, T/C: 24.8%
